Assay results reported in US10383837B2, “Compositions and methods for modulating metabolic pathways” (NuSirt Sciences, Inc., priority 2011, dated 2019).
Marks after values point to notes of the source that are not given here. One block for each compound: values may come before it.

Tests used:
[1] = test system: adipocytes (3T3-L1) and myotubes (C2C12); test: Fatty acid oxidation screening: dose-response curves and synergy, cell type not separately stated; assay type: cell-based; conditions: for concentration that exerts no effect in dose-response curves (sub-therapeutic dose used in synergy experiments): fatty acid oxidation dose-response
c2c12 myotubes [2] = test: Glucose utilization, extracellular acidification response to glucose, myotubes; assay type: cell-based; conditions: leucine 0.5 mM, HMB 5 μM, resveratrol 200 nM, partner at its no-effect concentration
Procedure: All compounds were tested for potential to independently or synergistically modulate sirtuin signaling either by direct stimulation or indirect via upstream signaling via AMPK. A key outcome of Sirt1 signaling is stimulation of PGC1-α and subsequent stimulation of mitochondrial biogenesis and fatty acid oxidation. Accordingly, fatty acid oxidation, measured as palmitate-induced oxygen consumption as described below, was utilized as a sensitive first level of screening for aerobic mitochondrial metabolism. A dose-response curve for fatty acid oxidation was established for each compound studied, and a “sub-therapeutic dose” was defined as the highest dose that exerted no effect in this system. […] Following assessment of fatty acid oxidation, Sirt1 activity, AMPK activity, mitochondrial biogenesis and glucose utilization (measured as glucose-induced extracellular acidification in the absence of fatty acids in the media) were assessed for lead combinations and appropriate controls. In the absence of a fatty acid source and oxidative metabolism, glycolysis and subsequent lactate production results in extracellular acidification, which was also measured using a Seahorse Bioscience XF24 analyzer. […] Data for each sample were normalized to the pre-glucose injection baseline for that sample and expressed as % change from that baseline. […]

Sirt3 = target: T1, Sirt3 (Mus musculus, UniProt Q8R104); test: Sirt3 activity in mitochondrial protein of treated 3T3-L1 adipocytes; assay type: cell-based; conditions: leucine 0.5 mM, HMB 5 μM, resveratrol 200 nM; summary in Example 5
T1 construct: endogenous in cells; host or cells: 3T3-L1 adipocytes (mitochondrial protein)
T1 sequence (Q8R104 1-334): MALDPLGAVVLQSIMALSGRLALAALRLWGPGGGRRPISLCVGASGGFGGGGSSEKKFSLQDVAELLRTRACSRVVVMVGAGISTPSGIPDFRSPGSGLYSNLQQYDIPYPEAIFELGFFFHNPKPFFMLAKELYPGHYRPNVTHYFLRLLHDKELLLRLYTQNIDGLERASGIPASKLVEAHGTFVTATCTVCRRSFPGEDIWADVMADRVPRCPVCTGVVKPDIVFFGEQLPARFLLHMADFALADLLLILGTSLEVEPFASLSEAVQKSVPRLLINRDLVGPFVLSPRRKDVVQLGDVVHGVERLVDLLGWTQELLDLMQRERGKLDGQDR

Adipocytes (3T3-L1) = test: Fatty acid oxidation by 3H-palmitate in 3T3-L1 adipocytes; assay type: cell-based; conditions: 4 hours, resveratrol 200 nM, HMB 5 uM, leucine 0.5 mM; for increase in fatty acid oxidation, low glucose: low (5 mM) glucose
Procedure: High glucose medium reduced fatty acid oxidation by 46% (p<0.05).
Fatty acid oxidation was measured using ^3H-labeled palmitate oxidation, with the ^3H label trapped as water as a result of the fat oxidation. The ^3H was then measured via scintillation counter.

[3] = test system: PGC-1α, NRF-1, UCP3 genes; test: Expression of mitochondrial regulatory and component genes; assay type: cell-based
c2c12 myotubes [4] = test: Fatty acid oxidation (FAO) in c2c12 myotubes, Example 1; assay type: cell-based; conditions: in the presence and absence of 20 nM rapamycin
Procedure: We have shown that catabolic systems are also stimulated to fuel this process, resulting in increased mitochondrial biogenesis and fatty acid oxidation (FAO). To address the mechanism of this effect, we first determined its mTOR-dependence by assessing leucine stimulation of FAO in the presence and absence of 20 nM rapamycin; although rapamycin inhibited FAO in c2c12 myotubes, the degree of leucine stimulation was preserved (˜50%, p<0.03; FIG. 1).
(§1) We next investigated the role of intact leucine (0-0.5 mM) vs. its metabolites, α-ketoisocaproic acid (KIC) (0-0.5 mM) and HMB (0-50 μM). […] Both leucine and HMB increased myotube mitochondrial biogenesis (assessed fluorometrically via NAO binding) by ˜50%, (p<0.005, FIG. 3).

myotube = test: Myotube mitochondrial biogenesis, fluorometric NAO binding, Example 1; assay type: cell-based; conditions: myotubes
Procedure: as §1

[5] = db/db mice, 2 weeks
[6] = db/db mice, day 7, insulin 0.75 U/kg i.p.; standard metformin dose or blends
[7] = Plasma insulin, glucose and HOMAIR in diabetic db/db mice; assay type: in vivo; conditions: 2 weeks, low dose (150 mg/kg) and very low dose (50 mg/kg) of metformin
myotubes (C2C12) = test: Fatty acid oxidation, palmitate-induced O2 consumption (Seahorse XF24), myotubes; assay type: cell-based; conditions: 24 hours treatment, leucine 0.5 mM, HMB 5 μM, resveratrol 200 nM, partner at its no-effect concentration, % change from control
SIRT1 = target: T2, SIRT1 (Mus musculus, UniProt Q923E4); test: Adipose tissue Sirt1 activity in diet-induced obese mice; assay type: in vivo, c57/BL6 mice; parameters: from tissue; host or cells: adipose tissue of diet-induced obese c57/BL6 mice; conditions: 6 weeks, low dose of resveratrol, HMB, leucine diets
T2 sequence (Q923E4 1-737): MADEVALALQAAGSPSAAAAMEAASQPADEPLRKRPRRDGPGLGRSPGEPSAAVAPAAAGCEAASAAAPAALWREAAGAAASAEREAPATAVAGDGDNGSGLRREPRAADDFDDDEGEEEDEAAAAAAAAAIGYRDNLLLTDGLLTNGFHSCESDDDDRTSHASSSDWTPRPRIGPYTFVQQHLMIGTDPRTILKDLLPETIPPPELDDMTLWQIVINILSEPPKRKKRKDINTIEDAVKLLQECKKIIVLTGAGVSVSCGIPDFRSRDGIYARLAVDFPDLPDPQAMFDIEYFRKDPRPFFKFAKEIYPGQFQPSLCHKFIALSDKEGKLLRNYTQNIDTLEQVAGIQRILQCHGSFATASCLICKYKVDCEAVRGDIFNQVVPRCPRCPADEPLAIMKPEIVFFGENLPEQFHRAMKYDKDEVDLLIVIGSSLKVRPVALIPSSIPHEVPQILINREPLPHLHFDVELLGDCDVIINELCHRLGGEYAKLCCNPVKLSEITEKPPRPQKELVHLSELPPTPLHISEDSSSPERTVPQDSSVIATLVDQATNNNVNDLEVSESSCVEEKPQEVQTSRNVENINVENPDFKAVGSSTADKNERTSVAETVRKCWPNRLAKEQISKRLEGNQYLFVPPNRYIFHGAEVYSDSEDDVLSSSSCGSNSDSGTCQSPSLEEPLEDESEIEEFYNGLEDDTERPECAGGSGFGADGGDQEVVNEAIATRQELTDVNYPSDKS

[8] = test system: C-reactive protein, IL-6, MCP-1, adiponectin; test: Circulating inflammatory biomarkers in diet-induced obese mice; assay type: in vivo, c57/BL6 mice; conditions: 6 weeks on diet, low resveratrol 12.5 mg/kg diet, low HMB 2 g CaHMB/kg diet, high HMB 10 g CaHMB/kg diet, leucine 2.42% of diet
[9] = Body weight, weight gain and visceral adipose volume in diet-induced obese mice; assay type: in vivo, c57/BL6 mice; conditions: 6 weeks on diet, low resveratrol 12.5 mg/kg diet, low HMB 2 g CaHMB/kg diet, high HMB 10 g CaHMB/kg diet, leucine 2.42% of diet
Excerpt: (§2) Six week old male c57/BL6 mice were fed a high-fat diet with fat increased to 45% of energy (Research Diets D12451) for 6 weeks to induce obesity.
At the of the treatment period (6 weeks) all animals were humanely euthanized, and blood and tissues collected for further experiments.

[10] = Indices of insulin sensitivity (plasma glucose, insulin, HOMAIR) in diet-induced obese mice; assay type: in vivo, c57/BL6 mice; conditions: 6 weeks on diet, low resveratrol 12.5 mg/kg diet, low HMB 2 g CaHMB/kg diet, high HMB 10 g CaHMB/kg diet, leucine 2.42% of diet
Excerpt: Insulin sensitivity can be measured using a variety of techniques, including HOMAIR. HOMAIR, which is the homeostasis model assessment of insulin resistance can be used as a screening index of changes in insulin sensitivity. HOMAIR can be calculated via standard formula from fasting plasma insulin and glucose as follows: HOMAIR=[Insulin (uU/mL)×glucose (mM)]/22.5.
as §2

Compound: Cn1c(=O)c2[nH]cnc2n(C)c1=O [Theophylline, theophylline, reference compound]
concentration that exerts no effect in dose-response curves (sub-therapeutic dose used in synergy experiments) [1]: below 1 μM

Compound: O=C(O[C@@H]1Cc2c(O)cc(O)cc2O[C@@H]1c1cc(O)c(O)c(O)c1)c1cc(O)c(O)c(O)c1 [EGCG, epigallocatechin gallate]
independent activity in dose-response curves / direct stimulation of fatty acid oxidation [1]: minimally active
increase in glucose utilization, myotubes (c2c12 myotubes [2]): no independent effect

Compound: O=c1oc2c(O)c(O)cc3c(=O)oc4c(O)c(O)cc1c4c23 [Ellagic acid, ellagic acid]
independent activity in dose-response curves / direct stimulation of fatty acid oxidation [1]: little activity, even at high concentrations

Compound: O=C(O)/C=C/c1ccc(O)c(O)c1 [Caffeic acid, caffeic acid]
concentration that exerts no effect in dose-response curves (sub-therapeutic dose used in synergy experiments) [1]: ≤ 1000 nM

Compound: fucoxanthin
concentration that exerts no effect in dose-response curves (sub-therapeutic dose used in synergy experiments) [1]: ≤ 100 nM

stimulation of Sirt3 (Sirt3): no independent effects
Compound: CC(C)C[C@H](N)C(=O)O [leucine]
increase in fatty acid oxidation, low glucose (Adipocytes (3T3-L1)): no independent effect
expression of mitochondrial regulatory (PGC-1α and NRF-1) and component (UCP3) genes [3]: stimulated expression
degree of leucine stimulation of FAO (c2c12 myotubes [4]): ~50%
increase in myotube mitochondrial biogenesis (NAO binding) (myotube): ~50%

Compound: CN(C)C(=N)N=C(N)N [metformin]
visceral fat mass ([5]; control 4.5 g): not affected
effect on body composition ([5]; high dose metformin 300 mg/kg bw): no significant effects
decrease in blood glucose over the 30 minute linear portion of the insulin tolerance test response curve [6]: ~60 mg/dL
independent effects on any variable studied [7]: no significant independent effects

Compound: Cn1c(=O)c2c(ncn2C)n(C)c1=O [Caffeine, caffeine, reference compound]
increase in myotube fatty acid oxidation (myotubes (C2C12)): neither component exerted an independent effect

Compound: OC[C@@H](O)[C@@H](O[C@H]1O[C@H](CO)[C@@H](O)[C@H](O)[C@H]1O)[C@H](O)[C@@H](O)CO [Maltitol, maltitol]
concentration that exerts no effect in dose-response curves (sub-therapeutic dose used in synergy experiments) [1]: ≤ 100 nM
synergy with HMB or leucine in stimulating fatty acid oxidation ([1]; leucine 0.5 mM, HMB 5 μM): no synergy was noted

Compound: CC(C)(O)CC(=O)O [HMB, beta-hydroxymethylbutyrate]
stimulation of Sirt3 (Sirt3): no independent effects
increase in fatty acid oxidation, high glucose (Adipocytes (3T3-L1); high (25 mM) glucose, vs. control): 29%
increase in fatty acid oxidation, low glucose (Adipocytes (3T3-L1)): no independent effect
adipose tissue Sirt1 activity (SIRT1): Neither resveratrol nor HMB exerted significant independent effects
Adiponectin [8]: 11.1 ± 1.6^a ng/mL
C-reactive protein [8]: 98.6 ± 5.1^a ng/mL
IL-6 [8]: 19.9 ± 3.1^a pg/mL
MCP-1 [8]: 116.8 ± 9.3^a pg/mL
expression of mitochondrial regulatory (PGC-1α and NRF-1) and component (UCP3) genes [3]: stimulated expression
Visceral Adipose Volume [9]: 6184 ± 460^a mm^3
Weight [9]: 40.3 ± 2.1^a g
Weight gain [9]: 22.5 ± 1.2 g
Glucose (plasma) [10]: 4.28 ± 0.49^a mM
Insulin (plasma) [10]: 8.3 ± 1.1^a μU/mL
increase in myotube mitochondrial biogenesis (NAO binding) (myotube): ~50%
